Experimental data taken from patent EP0877740B1, “THIOL DERIVATIVES WITH METALLOPEPTIDASE INHIBITORY ACTIVITY” (ZAMBON GROUP S.p.A., priority 1995, dated 1997).

Biological target: T1, ACE (Oryctolagus cuniculus, UniProt P12822)
T1 construct: ACE (250 mU/ml purified by lung rabbit, EC 3.4.15.1 SIGMA); purchased SIGMA; host or cells: rabbit lung (tissue-purified)
T1 sequence (P12822 34-1310): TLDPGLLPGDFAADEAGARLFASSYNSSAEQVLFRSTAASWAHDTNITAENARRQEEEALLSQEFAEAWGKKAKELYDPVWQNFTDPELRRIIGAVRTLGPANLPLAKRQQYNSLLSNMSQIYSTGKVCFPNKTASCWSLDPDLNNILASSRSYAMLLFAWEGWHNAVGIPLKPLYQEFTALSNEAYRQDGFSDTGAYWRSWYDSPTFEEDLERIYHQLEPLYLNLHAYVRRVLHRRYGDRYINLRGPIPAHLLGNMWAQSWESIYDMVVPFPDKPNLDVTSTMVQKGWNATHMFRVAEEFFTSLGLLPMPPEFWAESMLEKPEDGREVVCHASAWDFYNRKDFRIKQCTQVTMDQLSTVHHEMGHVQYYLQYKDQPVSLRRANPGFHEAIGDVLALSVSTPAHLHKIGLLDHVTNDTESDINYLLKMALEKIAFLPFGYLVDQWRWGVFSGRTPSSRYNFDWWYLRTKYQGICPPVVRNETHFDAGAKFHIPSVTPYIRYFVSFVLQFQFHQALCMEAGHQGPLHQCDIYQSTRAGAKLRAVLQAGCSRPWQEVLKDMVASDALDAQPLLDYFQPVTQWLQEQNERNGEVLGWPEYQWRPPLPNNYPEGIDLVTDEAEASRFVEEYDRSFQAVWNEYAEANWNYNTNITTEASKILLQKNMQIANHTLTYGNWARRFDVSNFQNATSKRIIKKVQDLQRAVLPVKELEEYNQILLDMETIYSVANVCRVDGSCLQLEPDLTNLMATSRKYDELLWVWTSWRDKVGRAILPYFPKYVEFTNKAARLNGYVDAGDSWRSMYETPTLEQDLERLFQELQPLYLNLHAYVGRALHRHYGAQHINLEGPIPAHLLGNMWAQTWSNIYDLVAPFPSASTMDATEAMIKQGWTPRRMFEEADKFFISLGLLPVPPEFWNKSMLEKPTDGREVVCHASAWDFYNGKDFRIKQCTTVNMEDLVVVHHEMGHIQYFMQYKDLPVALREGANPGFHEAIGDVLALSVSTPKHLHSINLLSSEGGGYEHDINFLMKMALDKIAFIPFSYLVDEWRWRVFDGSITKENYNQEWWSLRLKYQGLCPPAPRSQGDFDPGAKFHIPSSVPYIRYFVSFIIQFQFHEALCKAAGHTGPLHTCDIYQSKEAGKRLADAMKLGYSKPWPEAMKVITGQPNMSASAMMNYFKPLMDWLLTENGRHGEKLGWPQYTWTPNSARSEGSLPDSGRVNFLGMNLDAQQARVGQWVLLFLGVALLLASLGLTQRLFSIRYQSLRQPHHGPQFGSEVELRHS
Experiment: In vitro ACE-inhibitory activity (FAPGG substrate, spectrophotometric)
Format: biochemical
Details: ACE purified by lung rabbit, FAPGG 0.8 mM, 37°C
Experimental: […] of ACE (250 mU/ml purified by lung rabbit, EC 3.4.15.1 SIGMA) were preincubated with 50 µl of the compound of formula I or of the reference compound or related vehicle in thermostated cuvettes at 37°C.
The reaction was started by adding furylacryloylphenylalanylglycylglycine 0.8 mM (FAPGG-SIGMA).
Contemporaneously, by using a Beckman DU-50 spectrophotometer provided with a program for calculating delta A/minutes and regression coefficients of the enzyme kinetics curves, the absorbance at 340 nm was recorded in continuo for 5 minutes.
The percentage of the enzyme inhibition in the preparations treated with the compounds of formula I or with the comparative compounds with respect to the untreated preparations was expressed as IC50 (nM) value.

O=C(N[C@@H](Cc1ccc(-c2nccs2)cc1)C(=O)O)[C@@H](CS)Cc1ccccc1 [Compound 16, N-[(2S)-3-mercapto-2-phenylmethylpropionyl]-4-(2-thiazolyl)-L-phenylalanine]
IC50: 3.2 nM
